Laboratory results taken from patent US20240252677A1, “ONE-COMPONENT DELIVERY SYSTEM FOR NUCLEIC ACIDS” (The Trustees of the University of Pennsylvania, priority 2021, published 2024).

Experiments:
[1] = test system: liver; assay: In vivo mRNA delivery, IVIS imaging of organs: liver; parameters: species or system mice; key to Organs with luminescence: liver: strong: Strong meant the luminescence intensity in that organ was relatively high, compared to other organs; weak: Weak meant the luminescence intensity in that organ was relatively low, compared to other organs; conditions: Table 17; mice, IVIS, 4-6 h after injection; intensity relative to other organs
[2] = Dimensions (size, PDI) of DNPs co-assembled from IAJDs and Luc-mRNA by DLS; assay type: physicochemical
Method in brief: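 Hydrodynamic size and PDI were read by dynamic light scattering at 23 °C, 175° backscatter, 633 nm. Particles formed by fast injection of ethanolic IAJD stock (80 mg/mL) into nucleoside-modified luciferase mRNA (stock 4.0 mg/mL) in 10 mM acetate pH 4.0, 5 s vortex.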

[3] = Stability of DNPs by DLS after storage at 5° C.; assay type: physicochemical; parameters: key to Original size distribution type (DLS curve) / Size distribution type (DLS curve): U: DLS curve showed unimodal size distribution; B: DLS curve showed bimodal size distribution; M: DLS curve showed multimodal size distribution; conditions: for pH Sample: DNPs: IAJD 4.0 mg/mL + Luc-mRNA 0.1 mg/mL, injection in acetate buffer pH 4.00; for PDI / Size (d, nm) / Original size distribution type (DLS curve): IAJD 4.0 mg/mL + Luc-mRNA 0.1 mg/mL; for PDI / Size (d, nm): acetate buffer; for Original size distribution type (DLS curve): before storage, acetate buffer pH 4.00
Method in brief: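 DNPs in acetate buffer sized by DLS after storage at 5 °C. Stability ranked Excellent, Good or Not stable according to retention, shrinkage or growth of original size and narrowing or broadening of size distribution.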

[4] = Table 16, DNPs from IAJD 4 mg/mL and Luc-mRNA 0.10 mg/mL by injection in acetate buffer (10 mM, pH 4.0)
[5] = Table 17, DNPs used in vivo, IAJD 4 mg/mL, Luc-mRNA 0.10 mg/mL, acetate pH 4.0

Compound	Organs with luminescence: liver [1]	PDI [2, 4]	Size (d, nm) [2, 4] [nm]	PDI [2, 5]	Size (d, nm) [2, 5] [nm]	pH Sample [3]	Original size distribution type (DLS curve) [3]	other results
CCCCCCCCCCCCCCCCCCOc1cc(COC(=O)CCCN2CCN(CCO)CC2)cc(OCCCCCCCCCCCCC)c1 [IAJD 178, 3-(Octadecyloxy)-5-(tridecyloxy)benzyl 4-(4-(2-hydroxyethyl)piperazin-1-yl)butanoate]	liver (weak),	0.223	344	0.223	344	4.58	(U)	Size distribution type (DLS curve) ([3]; after 21 days at 5° C.): (U); PDI ([3]; after 21 days at 5° C.): 0.261; Size (d, nm) ([3]; after 21 days at 5° C.): 261 nm
CCCCCCCCCCCOc1cc(COC(=O)CCCN2CCN(C)CC2)cc(OCCCCCCCCCC)c1 [IAJD 114, 3-(Decyloxy)-5-(undecyloxy)benzyl 4-(4-methylpiperazin-1-yl)butanoate]	liver (weak),	0.351	105	0.351	105	4.46	(U)	Size distribution type (DLS curve) ([3]; after 75 days at 5° C.): (B); PDI ([3]; after 75 days at 5° C.): 0.369; Size (d, nm) ([3]; after 75 days at 5° C.): 107 nm
CCCCCCCCCCCCCCOc1cc(COC(=O)CCCN2CCN(C)CC2)cc(OCCCCCCCCCCCCC)c1 [IAJD 171, 3-(Tetradecyloxy)-5-(tridecyloxy)benzyl 4-(4-methylpiperazin-1-yl)butanoate]	liver (strong),	0.268	174	0.268	174	4.88	(U)	Size distribution type (DLS curve) ([3]; after 21 days at 5° C.): (U); PDI ([3]; after 21 days at 5° C.): 0.277; Size (d, nm) ([3]; after 21 days at 5° C.): 175 nm
CCCCCCCCCCCCCCCOc1cc(COC(=O)CCCN2CCN(C)CC2)cc(OCCCCCCCCCCCCCC)c1 [IAJD 147, 3-(Pentadecyloxy)-5-(tetradecyloxy)benzyl 4-(4-methylpiperazin-1-yl)butanoate]	liver (weak),	0.287	144	0.287	144	4.50	(U)	Size distribution type (DLS curve) ([3]; after 19 days at 5° C.): (U); PDI ([3]; after 19 days at 5° C.): 0.283; Size (d, nm) ([3]; after 19 days at 5° C.): 145 nm
CCCCCCCCCCCCCCCCCOc1cc(COC(=O)CCCN2CCN(C)CC2)cc(OCCCCCCCCCCCCCCC)c1 [IAJD 151, 3-(Heptadecyloxy)-5-(pentadecyloxy)benzyl 4-(4-methylpiperazin-1-yl)butanoate]	liver (weak),	0.216	287	0.216	287	4.57	(U)	Size distribution type (DLS curve) ([3]; after 35 days at 5° C.): (U); PDI ([3]; after 35 days at 5° C.): 0.240; Size (d, nm) ([3]; after 35 days at 5° C.): 271 nm
CCCCCCCCCCCCCCCCCOc1cc(COC(=O)CCCN2CCN(CCO)CC2)cc(OCCCCCCCCCCCCCCC)c1 [IAJD 152, 3-(Heptadecyloxy)-5-(pentadecyloxy)benzyl 4-(4-(2-hydroxyethyl)piperazin-1-yl)butanoate]	Liver (weak),	0.370	281	0.370	281	4.45	(B)	Size distribution type (DLS curve) ([3]; after 35 days at 5° C.): (U); PDI ([3]; after 35 days at 5° C.): 0.286; Size (d, nm) ([3]; after 35 days at 5° C.): 253 nm
CCCCCCCCCCCCCCCCCCOc1cc(COC(=O)CCCN2CCN(CCO)CC2)cc(OCCCCCCCCCCC)c1 [IAJD 128, 3-(Octadecyloxy)-5-(undecyloxy)benzyl 4-(4-(2-hydroxyethyl)piperazin-1-yl)butanoate]	liver (weak),	0.381	291	0.381	291	4.40	(B)	Size distribution type (DLS curve) ([3]; after 70 days at 5° C.): (B); PDI ([3]; after 70 days at 5° C.): 0.459; Size (d, nm) ([3]; after 70 days at 5° C.): 210 nm
CCCCCCCCCCCCCCCOc1cc(COC(=O)CCCN2CCN(CCO)CC2)cc(OCCCCCCCCCCCCCC)c1 [IAJD 148, 3-(Pentadecyloxy)-5-(tetradecyloxy)benzyl 4-(4-(2-hydroxyethyl)piperazin-1-yl)butanoate]	liver (weak),	0.339	363	0.339	363	4.46	(U)	Size distribution type (DLS curve) ([3]; after 19 days at 5° C.): (B); PDI ([3]; after 19 days at 5° C.): 0.374; Size (d, nm) ([3]; after 19 days at 5° C.): 405 nm
CCCCCCCCCCCCCCCCOc1cc(COC(=O)CCCN2CCN(CCO)CC2)cc(OCCCCCCCCCCCCCCC)c1 [IAJD 150, 3-(Hexadecyloxy)-5-(pentadecyloxy)benzyl 4-(4-(2-hydroxyethyl)piperazin-1-yl)butanoate]	liver (weak),	0.454	285	0.454	285	4.51	(B)	Size distribution type (DLS curve) ([3]; after 19 days at 5° C.): (U); PDI ([3]; after 19 days at 5° C.): 0.314; Size (d, nm) ([3]; after 19 days at 5° C.): 308 nm
CCCCCCCCCCCCCCCCCOc1cc(COC(=O)CCCN2CCN(CCO)CC2)cc(OCCCCCCCCCCC)c1 [IAJD 127, 3-(Heptadecyloxy)-5-(undecyloxy)benzyl 4-(4-(2-hydroxyethyl)piperazin-1-yl)butanoate]	liver (weak),	0.270	276	0.270	276	4.46	(U)	Size distribution type (DLS curve) ([3]; after 62 days at 5° C.): (B); PDI ([3]; after 62 days at 5° C.): 0.248; Size (d, nm) ([3]; after 62 days at 5° C.): 263 nm
CCCCCCCCCCCCCOc1cc(COC(=O)CCCN2CCN(C)CC2)cc(OCCCCCCCCCCC)c1 [IAJD 116, 3-(Tridecyloxy)-5-(undecyloxy)benzyl 4-(4-methylpiperazin-1-yl)butanoate]	liver (weak),	0.264	150	0.264	150	4.47	(U)	Size distribution type (DLS curve) ([3]; after 62 days at 5° C.): (U); PDI ([3]; after 62 days at 5° C.): 0.272; Size (d, nm) ([3]; after 62 days at 5° C.): 168 nm
CCCCCCCCCCCCCCCOc1cc(COC(=O)CCCN2CCN(CCO)CC2)cc(OCCCCCCCCCCCC)c1 [IAJD 144, 3-(Dodecyloxy)-5-(pentadecyloxy)benzyl 4-(4-(2-hydroxyethyl)piperazin-1-yl)butanoate]	liver (weak),	0.432	236	0.432	236	4.40	(B)	Size distribution type (DLS curve) ([3]; after 27 days at 5° C.): (U); PDI ([3]; after 27 days at 5° C.): 0.276; Size (d, nm) ([3]; after 27 days at 5° C.): 216 nm
CCCCCCCCCCCCCCCCCOc1cc(COC(=O)CCCN2CCN(C)CC2)cc(OCCCCCCCCCCC)c1 [IAJD 126, 3-(Heptadecyloxy)-5-(undecyloxy)benzyl 4-(4-methylpiperazin-1-yl)butanoate]	liver (weak),	0.247	158	0.247	158	4.48	(U)	Size distribution type (DLS curve) ([3]; after 70 days at 5° C.): (U); PDI ([3]; after 70 days at 5° C.): 0.239; Size (d, nm) ([3]; after 70 days at 5° C.): 154 nm
CCCCCCCCCCCCCCCOc1cc(COC(=O)CCCN2CCN(C)CC2)cc(OCCCCCCCCCCCC)c1 [IAJD 143, 3-(Dodecyloxy)-5-(pentadecyloxy)benzyl 4-(4-methylpiperazin-1-yl)butanoate]	liver (strong),	0.270	169	0.270	169	4.48	(U)	Size distribution type (DLS curve) ([3]; after 27 days at 5° C.): (U); PDI ([3]; after 27 days at 5° C.): 0.243; Size (d, nm) ([3]; after 27 days at 5° C.): 166 nm
